Measurements from patent publication US11229810B2, “Methods and systems for producing neuronal lesions using magnetic resonance and acoustic energy” (University of Virginia Patent Foundation, priority 2017, dated 2022).

Tested on: lateral aspect of the hippocampus
Assay: MRgFUS + microbubbles + QA lesion study in rats, followed by T2-TSE MR imaging
Assay type: in vivo, Male Sprague Dawley rats
Details: rat, QA 0.06 mmol (1 ml of 10 mg/ml) intraperitoneally once per day for 4 days beginning 2 days prior to insonification, saline-treated animals normal
Protocol: An illustrative example is described below, concerning a study of techniques herein as applied to a particular subject. Male Sprague Dawley rats (e.g., 5-6 weeks of age (120-150 g)), were divided into two groups receiving the following treatments: 1) MRgFUS+microbubbles+saline (n=5), or 2) MRgFUS+microbubbles+QA (n=5). QA was dissolved in 0.1M PBS (10 mg/ml). Either 1 ml of the QA solution (0.06 mmol) or 1 ml of saline was injected intraperitoneally once per day for 4 days beginning 2 days prior to insonification. Phospholipid encapsulated microbubbles (mean size: ˜5 um; concentration: 6×10^8 microbubbles/ml; volume injected: 300 μl/kg) and Gadodiamide contrast (Omniscan, 0.2 ml/kg) were delivered via the tail vein just prior to sonification.
An acoustic energy delivery system was configured in a manner similar to that discussed above as in system 100 and in this illustrative example, the system included an MR-compatible, pre-focused, 8-element annular array comprising 1.5 MHz transducers 111 (e.g., having spherical radius=20 mm±2 mm, active diameter=25 mm [focal ratio=0.8]; an ultrasonic transducer with 80% electric-acoustic efficiency, which was connected to a phased array generator and RF power amplifier. An MR-compatible motorized positioning stage was used to move the transducer in the rostral-caudal and medial-lateral directions. […]

## O=C(O)c1cccnc1C(=O)O [QA, quinolinic acid]
24 hours post-insonification
  T2-TSE imaging appearance of brain, 24 hours post-insonification: exhibited hyperintensity in the area of insonification
7 days post-insonification, no evidence of a lesion
  T2-TSE imaging appearance of brain, 7 days post-insonification: exhibited signs of damage in the region of insonification
